Measured values: US20030181373A1, “Vascular relaxation agents” (priority 2000, published 2003)

Experiments:
[1] = system: extirpated mouse lymph duct (efferent lymph duct of iliac lymph node); assay: Test for inhibition of spontaneous contraction of lymph duct (perfused extirpated mouse lymph duct, video microscope); design: species or system DDY mice
Description: The evaluation method of relaxation or contraction response is conducted based on a value (relative spontaneous contraction suppression) obtained by dividing the number of spontaneous contractions per minute observed after drug administration until returning to even spontaneous contractions by the average number of spontaneous contractions per minute before drug administration. For example, supposing that it takes 3 minutes to return to even spontaneous contractions after drug administration and that the contractions occur 9 times during that period, the value after drug administration is 3 times/minute. Therefore, if the frequency before drug administration is 15 times/minute, the suppression effect is represented as 20%, which is calculated by dividing 3 by 15 and standardizing the quotient as a percent.
Pentbarbital sodium (50 mg/kg) was intraperitoneally administered to DDY mice (male, 5 to 6 weeks old) so as to be anesthetized and sacrificed, and an efferent lymph duct of an iliac lymph node (with a maximum inner diameter of 300 μm) was extirpated. The extirpated lymph duct was preserved in a chilled Krebs solution (120 mM NaCl, 5.9 mM KCl, 2.5 mM CaCl2, 1.2 mM MgSO4, 1.2 mM NaH2PO4, 5.5 mM glucose, 25.0 mM NaHCO3) at 4° C.
The inner diameter of the perfused extirpated mouse lymph duct specimen, as obtained above, was measured using a video microscope system (FIG. 1). An internal pressure of 3 to 4 cm H2O was supplied to the specimen to induce spontaneous contraction.
Effects of PTHrP(1-34) on spontaneous contraction of the lymph duct were examined and compared with a control, in the presence of NO synthesis inhibitor (L-NAME, 3×10^−5 M), L-arginine (10^−3 M) as a substrate of […], glibenclamide 10^−6 M as an ATP-sensitive K^+ channel inhibitor, and PTHrP(7-34) as a PTH receptor antagonist.

[2] = system: extirpated human medullary arteriole; assay: Relaxation effects on an extirpated human medullary arteriole (perfused specimen); settings: control 127 μm
Description: Resistance vessel extirpated from femoral cancellous bone and the inside of femoral bone marrow during an artificial joint replacement surgery of a human (malum coxae) was used as a sample of human medullary arteriole. The extirpated femoral concellous bone and femoral bone marrow were preserved in a chilled Krebs solution (at 4° C. or lower), and thereafter used in the following in vitro experiment.
A perfused specimen from this sample was prepared in the same manner as the perfused specimen of the extirpated mouse miniature lymph duct in Example 1.
An image of the diameter of the specimen was captured through an object lens, a taking lens, and a CCD camera in the same manner as Example 2.
With respect to the perfused specimen as prepared above, relaxation effect of PTHrP(1-34)(10^−8M) in the presence of vasoconstricting norepinephrine (NE, 10^−6 M) was examined.

[3] = system: extirpated rat medullary arteriole; assay: Inner diameter changes of perfused medullary arteriole specimen of rat thigh bone; design: species or system Wistar rats
Description: Wistar rats (male, 5 to 6 weeks old) were anesthetized with pentbarbital ([…] of intraperitoneal administration) and sacrificed. All the skin, muscle, and ligament attached to the thigh bones were removed so as to expose and extirpate the thigh bones. The extirpated thigh bones were preserved in Krebs solution (at approximately 4° C.) for approximately 30 minutes. Strength was applied along the long axis direction of the thigh bone using mosquito forceps so as to crack the thigh bone along the long axis. Then, the cracked thigh bone was place into a petri dish (containing Krebs solution at approximately 4° C.) which was coated with SILIGUARD. Under a stereoscopic microscope, the thigh bone was removed using microsurgical forceps (commercially available forceps that was further sharpened by a grinder) to expose the bone marrow.
Krebs solution (at approximately 4° C.) was filled into a 1 ml syringe (having a 27G needle attached thereto) and the inside of the bone marrow was washed with the Krebs solution so as to remove myeloid cells adhering to blood vessels.
As a result, a blood vessel network was observed (FIG. 8), and arterioles indicated by black wedge-shaped arrowheads were extirpated under a stereoscopic microscope using micro cusps and microsurgical forceps.
The extirpated medullary arteriole was fixed in an apparatus for preparing a perfused specimen (FIG. 1, vessel chamber 9), and a hydrostatic pressure was supplied thereto so as to wash and remove blood from the arteriole lumen. The inner pressure of the specimen was kept at 40 mmHg during the experiment and the exposed side of the specimen was continuously perfused (12 ml/min) with Krebs solution which was kept at 37° C. and pH of 7.4.
An image of the diameter of the specimen was captured through a object lens, a taking lens, and a CCD camera.

## COC(=O)[C@@H](N)CCCNC(=N)N[N+](=O)[O-] [L-NAME, N^G-nitro L-arginine methyl ester]
[1]; L-NAME 3×10^−5 M, PTHrP(1-34) 3×10^−9 M, FIG. 3B
  effect on inhibition of spontaneous lymph duct contraction by PTHrP(1-34), typical response: cancelled out
[1]; in the presence of L-NAME (3×10^−5 M), FIG. 4
  effect on lymph duct relaxation by PTHrP(1-34), four measurements: significantly cancelled out

## N=C(N)NCCC[C@H](N)C(=O)O [L-arginine]
[1]; L-arginine 10^−3 M with L-NAME 3×10^−5 M, PTHrP(1-34) 3×10^−9 M, FIG. 3C
  effect of simultaneous treatment with L-NAME on the cancellation effect, typical response: suppressed the cancellation effect of L-NAME
[1]; L-arginine (10^−3 M) with L-NAME (3×10^−5 M), FIG. 4
  effect of simultaneous treatment with L-NAME on the cancellation effect, four measurements: significantly suppressed the cancellation effect of L-NAME

## NC[C@H](O)c1ccc(O)c(O)c1 [NE, norepinephrine]
[2]; NE 10^−6 M, internal pressure 55 mmHg, FIG. 11(b)
  inner diameter of perfused specimen in the presence of NE: 33 μm

## COc1ccc(Cl)cc1C(=O)NCCc1ccc(S(=O)(=O)NC(=O)NC2CCCCC2)cc1 [glibenclamide]
[1]; glibenclamide 10^−6 M, PTHrP(1-34) 3×10^−9 M, FIG. 5B
  effect on lymph duct relaxation caused by PTHrP(1-34), typical response: cancelled out
[1]; glibenclamide (10^−6 M), FIG. 6
  effect on lymph duct relaxation caused by PTHrP(1-34), four measurements: significantly cancelled out

## PTHrP(1-34): peptide comprising a sequence of 1 to 34 amino acids relative to the amino acid sequences of the PTHrP
[3]; 10^−10 to 10^−8 M, FIG. 10
  dose dependence of dilation effect: dose dependent
[3]; PTHrP(1-34) 10^−8 M, dilated from 66 μm, passive diameter 120 μm, internal pressure 40 mmHg, FIG. 9
  inner diameter at maximum dilation (relaxation) after administration: 114 μm
[3]; dose range 10^−10 to 10^−8 M, FIG. 10
  dose at which dilation response was induced: 10^−9 M
[1]; 3×10^−10 of PTHrP(1-34), 15 times/minute before drug administration, FIG. 2A
  frequency of spontaneous contraction after drug administration: 13 times/minute
[1]; PTHrP(1-34) 10^−9 M, 3×10^−9 M, in addition to dilation responses, FIG. 2A
  effect on spontaneous contractions of the lymph duct at increased concentration: stopped remarkably
[1]; control without L-NAME and L-arginine, four measurements, FIG. 4
  effect of increasing PTHrP(1-34) on lymph duct (relative spontaneous contraction frequency ratio): relaxed the lymph duct
[1]; same specimen washed for 1 hour, dose response re-examined, FIG. 2B
  tachyphylaxis on repeated dose response: induced remarkable tachyphylaxis
[2]; PTHrP(1-34) 10^−8 M with NE 10^−6 M, NE alone 33 μm, FIG. 11(c)
  inner diameter of perfused specimen after addition of PTHrP(1-34) in the presence of NE: 121 μm

## PTHrP(7-34): peptide having a sequence comprising from 7 to 34 amino acids of PTHrP; PTH/PTHrP receptor antagonist
[1]; PTHrP(7-34) 10^−7 M, PTHrP(1-34) 10^−10 to 3×10^−9 M, FIG. 7
  effect on lymph duct relaxation by PTHrP(1-34), four individual examples: significantly cancelled out
